Measurements as given in patent US10544129B2, “Crystalline forms of AP26113, and preparation method thereof” (Crystal Pharmatech Co., Ltd., priority 2016, dated 2020).
≈ marks a conversion by molar mass, not a printed value. Read-outs that look alike come from different tables or passages of the source.

Columns and labels:
Format in all cases: physicochemical
[1] = Dissolution study (intrinsic dissolution rate, rotating disk); conditions: for Cumulative dissolution: phosphate buffer pH 6.8, 37° C.; for intrinsic dissolution rate: linear fit of cumulative dissolution with time, phosphate buffer pH 6.8
Protocol: The dissolution data were collected on an Agilent 708-DS.
100 mg of Form CS2 and Form A were added into the die of intrinsic dissolution rate (IDR) tooling, and then compressed at 12 KN for 1 min.
Dissolution medium: phosphate buffer (pH 6.8)
Dissolution method: rotating disk
Revolving speed: 1000 rpm
Medium temperature: 37° C.

[2] = Particle size study
Protocol: Particle size distribution of Forms CS1 and Form CS2 of the present disclosure and Form A of the prior art are tested. The average particle size of Form A is 12.58 μm, which is too small to be isolated effectively in the crystallization process. The Average particle sizes of Forms CS1 and Form CS2 are 175.0 μm and 151.9 μm, which are much larger than that of Form A. Compared with Form A, Form CS1 and Form CS2 with large particle size have less electrostatic attraction and can be separated more easily during the crystallization process. Moreover, the mixing non uniformity in the preparation process can be avoided, the quality of the drug is more controllable. At the same time, the crystal growth of the large particle size crystals is more perfect, and the adsorption of the solvent or the impurity on the crystals can be avoided, which is more helpful for purification.

[3] = Solubility study in H2O (saturated solutions, HPLC)
Protocol: Samples of Form CS1 of this present disclosure and Form A were suspended in H2O to get saturated solutions. After equilibrated for 1 h and 4 hours, the concentrations of the saturated solutions were measured by high performance liquid chromatography (HPLC).

[4] = Solubility study in FaSSIF and SGF (saturated solutions, HPLC); conditions: for solubility at 1 h / solubility at 4 h: thermodynamic from solid
Protocol: Samples of Form CS2 of the present disclosure and Form A were suspended in FaSSIF (Fasted state simulated intestinal fluids) and SGF (Simulated gastric fluids) to get saturated solutions. The concentrations of the saturated solutions were measured by high performance liquid chromatography (HPLC) at fixed time points.

[5] = Stability study at 25° C./60% RH (XRPD, purity); conditions: one month and three months
Protocol: Approximately 10 mg of Form CS2 were stored in a temperature and humidity controlled chamber at 25° C./60% RH, and samples were taken for XRPD at the beginning and after stored for one month and three months. The results are as depicted in FIG. 13.

Row | Cumulative dissolution ([1]; 10 min) | Cumulative dissolution ([1]; 15 min) | Cumulative dissolution ([1]; 20 min) | Cumulative dissolution ([1]; 25 min) | Cumulative dissolution ([1]; 30 min) | intrinsic dissolution rate [1] | average particle size [2] | Solubility H2O ([3]; 1 h) | Solubility H2O ([3]; 4 h) | solubility in SGF (in words) ([4]; SGF) | Structure (SMILES) | further results
1 | 0.6 mg | 0.9 mg | 1.1 mg | 1.4 mg | 1.6 mg | 0.052 mg/min | 12.58 μm | 61 µg/mL (≈ 0.104 mM) | 67 µg/mL (≈ 0.115 mM) | good solubility | COc1cc(N2CCC(N3CCN(C)CC3)CC2)ccc1Nc1ncc(Cl)c(Nc2ccccc2P(C)(C)=O)n1 [Form A, AP26113] | solubility in water (in words) ([3]; water): poor; Solubility FaSSIF ([4]; FaSSIF, 1 h): 6900 µg/mL (≈ 11.8 mM); Solubility FaSSIF ([4]; FaSSIF, 4 h): 7200 µg/mL (≈ 12.3 mM); Solubility SGF ([4]; SGF, 1 h): 10900 µg/mL (≈ 18.7 mM); Solubility SGF ([4]; SGF, 4 h): 10900 µg/mL (≈ 18.7 mM)
2 | 6.4 mg | 8.0 mg | 9.4 mg | 10.7 mg | 11.8 mg | 0.268 mg/min | 151.9 μm |  |  | good solubility | COc1cc(N2CCC(N3CCN(C)CC3)CC2)ccc1Nc1ncc(Cl)c(Nc2ccccc2P(C)(C)=O)n1 [Form CS2, AP26113] | dissolution rate, times higher than that of Form A ([1]; relative to Form A): 5 times; purity after storage ([5]; beginning): above 99%; crystalline form after storage (XRPD) [5]: doesn't change; solubility higher than that of Form A ([4]; FaSSIF, one hour, relative to Form A): 43%; solubility at 1 h ([4]; FaSSIF, FaSSIF, 1 h, read-out: Solubility FaSSIF): 9900 µg/mL (≈ 16.9 mM); solubility at 4 h ([4]; FaSSIF, FaSSIF, 4 h, read-out: Solubility FaSSIF): 9600 µg/mL (≈ 16.4 mM); solubility at 1 h ([4]; SGF, simulated gastric fluid, SGF, 1 h, read-out: Solubility SGF): 11200 µg/mL (≈ 19.2 mM); solubility at 4 h ([4]; SGF, simulated gastric fluid, SGF, 4 h, read-out: Solubility SGF): 12100 µg/mL (≈ 20.7 mM)
3 |  |  |  |  |  |  | 175.0 μm | 1000 µg/mL (≈ 1.71 mM) | 610 µg/mL (≈ 1.04 mM) |  | COc1cc(N2CCC(N3CCN(C)CC3)CC2)ccc1Nc1ncc(Cl)c(Nc2ccccc2P(C)(C)=O)n1 [Form CS1, AP26113] | solubility in water, times higher than that of Form A ([3]; water, relative to Form A): 16 times
